21 molecules from PubChem BioAssay AID328 (DTP/NCI, 2004) can be followed below.

This assay deals with BDF1 mice, P388 leukemia ip, median survival T/C. As to the kind of experiment: NCI In Vivo Anticancer Drug Screen. Data for tumor model P388 Leukemia (intraperitoneal) in B6D2F1 (BDF1) mice. The conditions noted are these: endpoint: median survival time, higher = longer survival. In a few lines:
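In tumour-bearing mice, survival after compound treatment is set against the vehicle group and given as a quotient.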

Setting [1] is: dose: 25.0 mg/kg/injection, schedule: Q01DX009 (ip), vehicle: saline.
Where [2] appears, read: dose: 50.0 mg/kg/injection, schedule: Q01DX009 (ip), vehicle: saline.
Setting [3] is: dose: 50.0 mg/kg/injection, schedule: Q04DX003 (ip), vehicle: saline.
Where [4] appears, read: dose: 100.0 mg/kg/injection, schedule: Q01DX009 (ip), vehicle: saline.
The mark [5] stands for this setting: dose: 100.0 mg/kg/injection, schedule: Q04DX003 (ip), vehicle: saline.
Setting [6] is: dose: 50.0 mg/kg/injection, schedule: Q04DX003 (ip), vehicle: Klucel (hydroxypropylcellulose) (HPC).
The mark [7] stands for this setting: dose: 100.0 mg/kg/injection, schedule: Q04DX003 (ip), vehicle: Klucel (hydroxypropylcellulose) (HPC).
Where [8] appears, read: dose: 200.0 mg/kg/injection, schedule: Q01DX009 (ip), vehicle: saline.
Setting [9] is: dose: 200.0 mg/kg/injection, schedule: Q04DX003 (ip), vehicle: saline.
The mark [10] stands for this setting: dose: 400.0 mg/kg/injection, schedule: Q01DX009 (ip), vehicle: saline.
Setting [11] is: dose: 400.0 mg/kg/injection, schedule: Q04DX003 (ip), vehicle: saline.
The mark [12] stands for this setting: dose: 200.0 mg/kg/injection, schedule: Q04DX003 (ip), vehicle: Klucel (hydroxypropylcellulose) (HPC).
[13] abbreviates: dose: 400.0 mg/kg/injection, schedule: Q04DX003 (ip), vehicle: Klucel (hydroxypropylcellulose) (HPC).
The mark [14] stands for this setting: dose: 25.0 mg/kg/injection, schedule: Q01DX009 (ip), vehicle: saline with Tween-80.
The mark [15] stands for this setting: dose: 50.0 mg/kg/injection, schedule: Q01DX009 (ip), vehicle: saline with Tween-80.
The mark [16] stands for this setting: dose: 100.0 mg/kg/injection, schedule: Q01DX009 (ip), vehicle: saline with Tween-80.
Where [17] appears, read: dose: 100.0 mg/kg/injection, schedule: Q04DX003 (ip), vehicle: saline with Tween-80.
The mark [18] stands for this setting: dose: 200.0 mg/kg/injection, schedule: Q01DX009 (ip), vehicle: saline with Tween-80.
[19] abbreviates: dose: 200.0 mg/kg/injection, schedule: Q04DX003 (ip), vehicle: saline with Tween-80.
Setting [20] is: dose: 400.0 mg/kg/injection, schedule: Q04DX003 (ip), vehicle: saline with Tween-80.
Setting [21] is: dose: 400.0 mg/kg/injection, schedule: Q01DX001 (ip), vehicle: saline sonified.
Where [22] appears, read: dose: 200.0 mg/kg/injection, schedule: Q04DX003 (ip), vehicle: saline sonified.

SMILES strings stand for the structures. Inconclusive results and toxic doses are left out.

With `C[n+]1ccc2ccccc2c1`, the T/C reads like this: under setting [1], 100 % of control; under setting [2], 100 % of control; under setting [3], 104 % of control; under setting [4], 104 % of control; under setting [5], 100 % of control.

Regarding `CC(Br)CNC(=O)c1ccc([N+](=O)[O-])cc1` (stereo not given), the T/C (dose: 25.0 mg/kg/injection, schedule: Q04DX003 (ip), vehicle: Klucel (hydroxypropylcellulose) (HPC)) was 109 % of control; the T/C under setting [6] was 109 % of control; the T/C under setting [7] was 100 % of control.

As to `COc1ccc(C(C#N)CC(=O)c2ccc(OC)c(OCc3ccccc3)c2)cc1OC` (stereo not given), the T/C reads like this: (dose: 6.25 mg/kg/injection, schedule: Q01DX009 (ip), vehicle: saline) 90 % of control; (dose: 12.5 mg/kg/injection, schedule: Q01DX009 (ip), vehicle: saline) 95 % of control; under setting [1], 91 % of control; (dose: 25.0 mg/kg/injection, schedule: Q04DX003 (ip), vehicle: saline) 114 % of control; under setting [2], 99 % of control; under setting [3], 96 % of control. The T/C is 90 % of control under setting [4]; 96 % of control under setting [5]; 86 % of control under setting [8]; 107 % of control under setting [9]; 95 % of control under setting [10]; 100 % of control under setting [11].

Consider `CCOc1ccc(OCC)c2c1C(=O)c1ccccc1C2=O`, for which the T/C under setting [7] was 100 % of control, the T/C under setting [12] is 105 % of control and the T/C under setting [13] was 111 % of control.

Take `Cc1ccc(C(=O)NCCCOc2ccc(N)cc2Cl)cc1S(=O)(=O)F`: the T/C was 102 % of control under setting [14]; 111 % of control under setting [15]; 100 % of control (dose: 50.0 mg/kg/injection, schedule: Q04DX003 (ip), vehicle: saline with Tween-80); 93 % of control under setting [16]; 92 % of control under setting [17]; 107 % of control under setting [18]. The T/C by setting is: under setting [19], 92 % of control; under setting [20], 90 % of control.

Take `CN(C)c1ccc(Cc2ccc(N(C)C)cc2[N+](=O)[O-])cc1`: the T/C under setting [7] is 100 % of control, the T/C under setting [12] was 95 % of control and the T/C under setting [13] was 104 % of control.

With `NC(Cc1ccccc1Cl)C(=O)O` (stereo not given), the T/C by setting is: (dose: 12.5 mg/kg/injection, schedule: Q01DX009 (ip), vehicle: saline with Tween-80) 86 % of control; under setting [14], 101 % of control; under setting [1], 122 % of control; under setting [15], 107 % of control; under setting [2], 116 % of control; under setting [16], 102 % of control. In addition, under setting [18], the T/C is 94 % of control.

As to `Cc1ccc(C)c(Cc2c(C=O)[nH]c(=S)[nH]c2=O)c1`, the T/C under setting [17] was 100 % of control, the T/C under setting [19] is 109 % of control and the T/C under setting [20] was 122 % of control.

`CCCCCCCCCCCCC(C(=O)O)C1C=CCC1` (stereo not given): the T/C was 100 % of control (dose: 100.0 mg/kg/injection, schedule: Q01DX001 (ip), vehicle: other); 100 % of control (dose: 200.0 mg/kg/injection, schedule: Q01DX001 (ip), vehicle: other); 100 % of control (dose: 400.0 mg/kg/injection, schedule: Q01DX001 (ip), vehicle: other).

As for `OCC(CO)(CO)CBr`, the T/C reads like this: under setting [4], 110 % of control; under setting [5], 90 % of control; under setting [8], 110 % of control; under setting [9], 90 % of control; under setting [10], 88 % of control; under setting [11], 114 % of control.

Consider `CCN(CC)CCNc1ccc([N+](=O)[O-])c2sc3ccccc3c(=O)c12`, for which the T/C (dose: 50.0 mg/kg/injection, schedule: Q01DX009 (ip), vehicle: saline sonified) is 177 % of control and the T/C (dose: 100.0 mg/kg/injection, schedule: Q01DX009 (ip), vehicle: saline sonified) was 95 % of control.

On to `Clc1ccc2c(c1)-c1ccccc1C1=NCCN12`, for which the T/C reads like this: (dose: 2.5 mg/kg/injection, schedule: Q04DX003 (ip), vehicle: Klucel (hydroxypropylcellulose) (HPC)) 110 % of control; (dose: 4.4 mg/kg/injection, schedule: Q04DX003 (ip), vehicle: Klucel (hydroxypropylcellulose) (HPC)) 100 % of control; (dose: 5.0 mg/kg/injection, schedule: Q01DX009 (ip), vehicle: Klucel (hydroxypropylcellulose) (HPC)) 95 % of control; (dose: 5.0 mg/kg/injection, schedule: Q04DX003 (ip), vehicle: Klucel (hydroxypropylcellulose) (HPC)) 100 % of control; (dose: 6.6 mg/kg/injection, schedule: Q04DX003 (ip), vehicle: Klucel (hydroxypropylcellulose) (HPC)) 91 % of control; (dose: 10.0 mg/kg/injection, schedule: Q01DX009 (ip), vehicle: Klucel (hydroxypropylcellulose) (HPC)) 113 % of control. The T/C was 95 % of control (dose: 10.0 mg/kg/injection, schedule: Q04DX003 (ip), vehicle: Klucel (hydroxypropylcellulose) (HPC)); 91 % of control (dose: 15.0 mg/kg/injection, schedule: Q04DX003 (ip), vehicle: Klucel (hydroxypropylcellulose) (HPC)); 113 % of control (dose: 20.0 mg/kg/injection, schedule: Q01DX009 (ip), vehicle: Klucel (hydroxypropylcellulose) (HPC)).

As to `CC1CC(C)(C)N=C(CC(C)(O)c2ccccn2)O1` (stereo not given), the T/C runs as follows: (dose: 100.0 mg/kg/injection, schedule: Q01DX001 (ip), vehicle: saline sonified) 100 % of control; (dose: 200.0 mg/kg/injection, schedule: Q01DX001 (ip), vehicle: saline sonified) 90 % of control; under setting [21], 100 % of control.

For `CCOC(=O)c1cc2ccccc2n1-c1ccccc1`, for the setting “dose: 400.0 mg/kg/injection, schedule: Q01DX009 (ip), vehicle: saline with Tween-80”, the T/C was 103 % of control.

In the case of `N#CCC(=O)Cc1ccccc1[N+](=O)[O-]`, the T/C under setting [21] is 100 % of control.

As for `CCCCCCCCCCCCO[P+](=O)OCCCCCCCCCCCC`, the T/C is 100 % of control under setting [22] and 100 % of control (dose: 400.0 mg/kg/injection, schedule: Q04DX003 (ip), vehicle: saline sonified).

With `CCCCCCCCCCCCOc1ccccc1C=O`, the T/C is 104 % of control under setting [6]; 100 % of control under setting [7]; 118 % of control (dose: 100.0 mg/kg/injection, schedule: Q04DX003 (ip), vehicle: saline sonified); 118 % of control under setting [12]; 122 % of control under setting [22]; 109 % of control under setting [13].

Regarding `CNC(=S)ON1CCCCC1`, the T/C was 116 % of control under setting [15], 114 % of control under setting [16] and 121 % of control under setting [18].

With `c1cc(OCC2CO2)ccc1OCC1CO1` (stereo not given), the T/C runs as follows: (dose: 78.0 mg/kg/injection, schedule: Q04DX003 (ip), vehicle: saline with Tween-80) 119 % of control; (dose: 177.0 mg/kg/injection, schedule: Q04DX003 (ip), vehicle: saline with Tween-80) 153 % of control; (dose: 600.0 mg/kg/injection, schedule: Q04DX003 (ip), vehicle: saline with Tween-80) 122 % of control.

Consider `O=C1C(Cl)=C(N=Nc2c(Cl)c(O)c3ccccc3c2O)C(=O)c2ccccc21`, for which the T/C is 110 % of control (dose: 3.12 mg/kg/injection, schedule: Q01DX009 (ip), vehicle: Klucel (hydroxypropylcellulose) (HPC)); 115 % of control (dose: 6.25 mg/kg/injection, schedule: Q01DX009 (ip), vehicle: Klucel (hydroxypropylcellulose) (HPC)); 116 % of control (dose: 12.5 mg/kg/injection, schedule: Q01DX009 (ip), vehicle: Klucel (hydroxypropylcellulose) (HPC)); 109 % of control (dose: 25.0 mg/kg/injection, schedule: Q01DX009 (ip), vehicle: Klucel (hydroxypropylcellulose) (HPC)).

Consider `O=[N+]([O-])c1ccc(N/N=C/c2ccccn2)cc1`, for which the T/C is 104 % of control under setting [7], 100 % of control under setting [12] and 109 % of control under setting [13].
